In the oligonucleotide strings, read from the 5' end, every base follows the letter of its sugar. An asterisk marks phosphorothioate; unmarked linkages are phosphodiester. Other units and linkages are bracketed, terminal groups are in braces. A string of capitals states the bases alone. e = 2'-O-(2-methoxyethyl) (MOE); [5mC] = 5-methylcytosine; d = 2'-deoxy (DNA)
Assays:
rat p38α mRNA [1] = assay: Inhibition of rat p38α mRNA expression in A-10 cells, Northern blot; type: cell-based; settings: Rat A-10 cells, 200 nM oligonucleotide, 24 hours
Method: Rat p38α antisense oligonucleotides were screened in Rat A-10 cells. A-10 cells (American Type Culture Collection, Manassas, Va.) were grown in high-glucose DMEM (Life Technologies, Gaithersburg, Md.) medium containing 10% fetal calf serum (FCS). Cells were treated with oligonucleotide as described in Example 2. Oligonucleotide concentration was 200 nM. mRNA was isolated 24 hours after time zero and quantitated by Northern blot as described in Example 2.

rat p38α mRNA [2] = assay: Inhibition of rat p38α mRNA expression in rat cardiac myocytes, Northern blot; type: cell-based; settings: 1 μM oligonucleotide, 24 hrs
Method: Cells were grown as described in Zechner et al. and transfected with oligonucleotide as described in Example 2. Oligonucleotide concentration was 1 μM. mRNA was isolated 24 hrs after time zero and quantitated using Northern blotting as described in Example 2. An antisense oligonucleotide targeted to JNK-2 was used as a non-specific target control.

human p38α mRNA [3] = assay: Human p38α mRNA expression in T-24 cells; settings: initial screen of human p38β oligonucleotides
human p38α mRNA [4] = assay: Effect of human p38β oligonucleotides on human p38α mRNA in HUVEC cells; type: cell-based
Method: (§1) HUVEC cells were allowed to reach 75% confluency prior to use. The cells were washed twice with warm (37° C.) OPTI-MEM™ (Life Technologies). The cells were incubated in the presence of the appropriate culture medium, without the growth factors added, and the oligonucleotide formulated in LIPOFECTIN7 (Life Technologies), a 1:1 (w/w) liposome formulation of the cationic lipid N-[1-(2,3-dioleyloxy)propyl]-n,n,n-trimethylammonium chloride (DOTMA), and dioleoyl phosphotidylethanolamine (DOPE) in membrane filtered water. HUVEC cells were treated with 100 nM oligonucleotide in 10 μg/ml LIPOFECTIN7. Treatment was for four hours.
Total mRNA was isolated using the RNEASY7 Mini Kit (Qiagen, Valencia, Calif.; similar kits from other manufacturers may also be used), separated on a 1% agarose gel, transferred to HYBOND™-N+ membrane (Amersham Pharmacia Biotech, Piscataway, N.J.), a positively charged nylon membrane, and probed. p38 MAPK probes were made using the Prime-A-Gene7 kit (Promega Corporation, Madison, Wis.), a random primer labeling kit, using mouse p38α or p38β cDNA as a template. […] The G3PDH probe was labeled with REDIVUE™ ^32P-dCTP (Amersham Pharmacia Biotech, Piscataway, N.J.) and Strip-EZ labelling kit (Ambion, Austin, Tex.). mRNA was quantitated by a PhosphoImager (Molecular Dynamics, Sunnyvale, Calif.). […]

human p38β mRNA [5] = assay: Human p38β mRNA expression in T-24 cells
human p38β mRNA [6] = assay: Inhibition of human p38β mRNA expression in HUVEC cells, Northern blot; type: cell-based
Method: The human Jurkat T-cell line (American Type Culture Collection, Manassas, Va.) was maintained in RPMI 1640 growth media supplemented with 10% fetal bovine serum (FBS; Hyclone, Logan, Utah). HUVEC cells (Clonetics, San Diego, Calif.) were cultivated in endothelial basal media supplemented with 10% FBS (Hyclone, Logan, Utah).
as §1
Total mRNA was isolated using the RNEASY7 Mini Kit (Qiagen, Valencia, Calif.; similar kits from other manufacturers may also be used), separated on a 1% agarose gel, transferred to HYBOND™-N+ membrane (Amersham Pharmacia Biotech, Piscataway, N.J.), a positively charged nylon membrane, and probed. p38 MAPK probes were made using the Prime-A-Gene7 kit (Promega Corporation, Madison, Wis.), a random primer labeling kit, using mouse p38α or p38β cDNA as a template. A glyceraldehyde 3-phosphate dehydrogenase (G3PDH) probe was purchased from Clontech (Palo Alto, Calif.), Catalog Number 9805-1. The fragments were purified from low-melting temperature agarose, as described in Maniatis, T., et al., Molecular Cloning: A Laboratory Manual, 1989. The G3PDH probe was labeled with REDIVUE™ ^32P-dCTP (Amersham Pharmacia Biotech, Piscataway, N.J.) and Strip-EZ labelling kit (Ambion, Austin, Tex.). mRNA was quantitated by a PhosphoImager (Molecular Dynamics, Sunnyvale, Calif.).
Every oligonucleotide tested gave at least 50% inhibition.
Oligonucleotides 17893 (SEQ ID NO. 27), 17899 (SEQ ID NO:33), 17904 (SEQ ID NO. 38), and 17907 (SEQ ID NO. 41) were chosen for dose response studies. HUVEC cells were cultured and treated as described in Example 2 except that the oligonucleotide concentration was varied as shown in Table 6. The Lipofectin7/Oligo ratio was maintained at 3 μg Lipofectin7/100 nM oligo, per ml. mRNA was measured by Northern blot as described in Example 2.

[7] = 100 nM oligonucleotide in 10 μg/ml LIPOFECTIN, four hours, Northern blot

| Substance | % p38α mRNA EXPRESSION (rat p38α mRNA [1]) [%] | % p38α mRNA EXPRESSION (rat p38α mRNA [2]) [%] | % p38α mRNA INHIBITION (rat p38α mRNA [2]) [%] | % p38α mRNA EXPRESSION (human p38α mRNA [3]) [%] | IC50 for p38α compared to p38β (human p38α mRNA [4]) | effect on p38α mRNA expression (human p38α mRNA [4]) | % p38β mRNA Expression (human p38β mRNA [5]; dose 50 nM, relative to control oligonucleotide = 100%) [%] | % p38β mRNA Expression (human p38β mRNA [5]; dose 100 nM, relative to control oligonucleotide = 100%) [%] | % p38β mRNA Expression (human p38β mRNA [5]; dose 200 nM, relative to control oligonucleotide = 100%) [%] | % p38β mRNA Expression (human p38β mRNA [5]; initial screen of human p38β oligonucleotides) [%] | % mRNA EXPRESSION (human p38β mRNA [6]; [7]) [%] | % mRNA Inhibition (human p38β mRNA [6]; [7]) [%] | % mRNA EXPRESSION (human p38β mRNA [6]; dose 10 nM) [%] | % mRNA Inhibition (human p38β mRNA [6]; dose 10 nM) [%] | % mRNA EXPRESSION (human p38β mRNA [6]; dose 25 nM) [%] | % mRNA Inhibition (human p38β mRNA [6]; dose 25 nM) [%] | % mRNA EXPRESSION (human p38β mRNA [6]; dose 50 nM) [%] | % mRNA Inhibition (human p38β mRNA [6]; dose 50 nM) [%] | % mRNA EXPRESSION (human p38β mRNA [6]; dose 100 nM) [%] | % mRNA Inhibition (human p38β mRNA [6]; dose 100 nM) [%] |
| --- | --- | --- | --- | --- | --- | --- | --- | --- | --- | --- | --- | --- | --- | --- | --- | --- | --- | --- | --- | --- |
| GoGoCoCoAsGsAsGsAsCsTsGsAsAsTsGoToAoGoT (antisense eGeGe[5mC]e[5mC]eA*dG*dA*dG*dA*d[5mC]*dT*dG*dA*dA*dT*eGeTeAeGeT) [ISIS 21846] | 8 | 41 | 59 |  |  |  |  |  |  |  |  |  |  |  |  |  |  |  |  |  |
| TGCGGCACCTCCCACACGGT (chimeric, phosphorothioate, further chemistry not given here) [ISIS 17893] |  |  |  | 61 | approximately 4 fold | showed an effect on p38α mRNA expression | 28 | 27 | 16 | 31 | 4 | 96 | 37 | 63 | 18 | 82 | 16 | 84 | 19 | 81 |

Source: patent US20040171566A1, “Antisense modulation of p38 mitogen activated protein kinase expression” (priority 1999, published 2004)
